According to patent US8222202B2 (priority 2006, dated 2012):
Like-named read-outs stand apart in the source and are kept apart here. Starred links: 1 amine or outer side, 2 acyl side, 3 side chain; linkers in the order of their positions; H or OH if unused. Positions of bridges follow the written chain, without caps; N, C: chain ends. Non-standard residues stand in square brackets, D forms with d. Residues, ends and D or L forms follow the SMILES beside them. X1 = CCNCCC[C@H](N[*:1])C(=O)[*:2]; Orn(Pr) = CCCNCCC[C@H](N)C(=O)O

Assays:
hV1a receptor = target: T1, hV1a receptor (Homo sapiens, UniProt P37288); assay: hV1a receptor transcriptional reporter (luciferase) agonist assay; format: cell-based
T1 construct: expressed in transfected cells; host or cells: HEK-293
T1 sequence (P37288 whole entry): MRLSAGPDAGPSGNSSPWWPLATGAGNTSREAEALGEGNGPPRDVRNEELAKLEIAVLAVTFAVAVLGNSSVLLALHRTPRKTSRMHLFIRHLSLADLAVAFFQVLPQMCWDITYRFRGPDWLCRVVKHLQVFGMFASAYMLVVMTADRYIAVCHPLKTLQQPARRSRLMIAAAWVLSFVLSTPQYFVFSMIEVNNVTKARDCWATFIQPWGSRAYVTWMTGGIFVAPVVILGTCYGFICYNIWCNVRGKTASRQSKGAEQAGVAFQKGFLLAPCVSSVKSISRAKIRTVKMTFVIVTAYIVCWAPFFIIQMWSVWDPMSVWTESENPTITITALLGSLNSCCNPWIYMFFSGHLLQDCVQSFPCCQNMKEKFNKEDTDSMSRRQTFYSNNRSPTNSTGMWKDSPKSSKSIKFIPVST

[1] = test system: anaesthetised Sprague-Dawley male rats; assay: in vivo duration of action, blood pressure test in anaesthetised rats; set-up: species or system rat; conditions: ratio of decay rate of diastolic blood pressure response, AVP 0.1 nmol/kg i.v. to equieffective dose of compound; dibenamine-pretreated rats
Procedure: Blood pressure tests were carried out on anaesthetised Sprague-Dawley male rats (weighing 270-300 g) with catheterised jugular vein and carotid artery. The catheterised carotid artery was used to continuously monitor blood pressure and the jugular vein was used for administration of the compounds tested. Rats received intravenous injections of dibenamine prior to dosing to enhance their responsiveness to V1a receptor agonists (cf. Dekanski, J., Br. J. Pharmacol. 1952, 7, 567-572). […] Dosing intervals were set as time for the blood pressure to decrease to a stable baseline.
Determination of duration of action was based on the decay rate of diastolic arterial blood pressure transient increase. Specifically, for an exponential decay of plasma concentration, it can be shown that, if the response is measured beyond the distribution phase, the rate of decay near the EC50 is linear and inversely proportional to the elimination half-life (Rowland, M. and Tozer, T. in “Clinical Pharmacokinetics, Concepts and Applications”, 3rd ed., Lippincott Williams & Wilkins, Philadelphia, 1995).

[2] = target: T2, human oxytocin (hOT) receptor (Homo sapiens, UniProt P30559); assay: luciferase-based transcriptional reporter assay, selectivity hOT versus hV1a; format: cell-based
T2 construct: expressed in transfected cells
T2 sequence (P30559 1-389): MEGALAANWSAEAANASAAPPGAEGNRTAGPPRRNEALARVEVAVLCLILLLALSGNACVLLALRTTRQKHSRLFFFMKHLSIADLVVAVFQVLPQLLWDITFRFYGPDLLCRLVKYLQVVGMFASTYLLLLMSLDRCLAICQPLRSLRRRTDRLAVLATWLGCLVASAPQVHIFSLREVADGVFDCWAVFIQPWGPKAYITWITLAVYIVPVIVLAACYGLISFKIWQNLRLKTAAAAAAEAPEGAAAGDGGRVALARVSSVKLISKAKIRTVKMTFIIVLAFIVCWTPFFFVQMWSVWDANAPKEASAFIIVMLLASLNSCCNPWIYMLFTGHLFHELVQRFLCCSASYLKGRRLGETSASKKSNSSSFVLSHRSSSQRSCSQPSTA

[3] = HEK-293 cells transiently transfected with hV1a receptor, 5 hours exposure, geometric mean, read-out: EC50 hV1a receptor
[4] = class symbol, agonist efficacy at hOT receptor compared to AVP

EC50 (hV1a receptor; [3]) | selectivity hOT/hV1a ([2]; EC50 ratio) | SMILES | in vivo duration relative to AVP [1] | selectivity hOT/hV1a [2, 4] | EC50 (hV1a receptor)
0.99 nM | – | CCNCCC[C@H](NC(=O)[C@@H]1CCCN1C(=O)[C@@H]1CSSC[C@H](N)C(=O)N[C@@H](Cc2ccccc2)C(=O)N[C@@H]([C@@H](C)CC)C(=O)N[C@@H](CC(N)=O)C(=O)N[C@@H](CC(N)=O)C(=O)N1)C(=O)NCC(N)=O [Compound 47] (H-CFINNCP[X1]G-NH2; disulfide 1-6; N-terminus and C-terminus assumed) | 1.6 | + (selective hV1a receptor agonist; EC50 hOT/hV1a ratio not determined due to very low agonist efficacy (<30% compared to AVP) at the hOT receptor) | –
1.52 nM | 43 | CCCNCCC[C@H](NC(=O)[C@@H]1CCCN1C(=O)[C@@H]1CSSC[C@H](N)C(=O)N[C@@H](Cc2ccccc2)C(=O)N[C@@H]([C@@H](C)CC)C(=O)N[C@@H](CC(N)=O)C(=O)N[C@@H](CC(N)=O)C(=O)N1)C(=O)NCC(N)=O [Compound 50] (H-CFINNCP[Orn(Pr)]G-NH2; disulfide 1-6; N-terminus and C-terminus assumed) | 2.4 | – | –
– | – | NCCCC[C@H](NC(=O)[C@@H]1CCCN1C(=O)[C@@H]1CSSC[C@H](NC(=O)CNC(=O)CNC(=O)CN)C(=O)N[C@@H](Cc2ccc(O)cc2)C(=O)N[C@@H](Cc2ccccc2)C(=O)N[C@@H](CCC(N)=O)C(=O)N[C@@H](CC(N)=O)C(=O)N1)C(=O)NCC(N)=O [terlipressin, reference compound] (H-GGGCYFQNCPKG-NH2; disulfide 4-9) | 9.1 | + (selective hV1a receptor agonist; EC50 hOT/hV1a ratio not determined due to very low agonist efficacy (<30% compared to AVP) at the hOT receptor) | 82.1 nM
